In patent US6028197A, “Dibenzo[a,g]quinolizinium derivatives and the salts thereof” (Hanwha Corporation, priority 1998, dated 2000):

biological target: T1, sterol 14-reductase (Rattus norvegicus, UniProt A0ACM8Q6X4); test: Inhibition of sterol 14-reductase in rat liver microsomes; format: biochemical; conditions: microsomes; read-out: Enzyme Activity (relative in vitro activity for sterol 14-reductase, IC50 class)
T1 construct: microsome which was used as an enzyme source of sterol 14-reductase; from tissue; host or cells: liver microsomes of male Sprague-Dawley rats fed lovastatin and cholestyramine
T1 sequence (A0ACM8Q6X4 1-418): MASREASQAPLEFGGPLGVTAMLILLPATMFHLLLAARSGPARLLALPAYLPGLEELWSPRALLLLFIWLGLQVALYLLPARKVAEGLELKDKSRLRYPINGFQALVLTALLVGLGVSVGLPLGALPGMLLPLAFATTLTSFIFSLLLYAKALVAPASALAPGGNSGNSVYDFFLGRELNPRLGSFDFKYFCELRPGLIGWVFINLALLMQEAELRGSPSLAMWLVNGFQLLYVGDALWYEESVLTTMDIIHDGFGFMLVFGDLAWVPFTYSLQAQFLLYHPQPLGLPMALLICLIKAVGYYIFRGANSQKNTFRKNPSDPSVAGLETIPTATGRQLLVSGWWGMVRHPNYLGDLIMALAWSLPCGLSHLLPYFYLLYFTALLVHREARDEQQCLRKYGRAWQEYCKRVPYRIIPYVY

CCc1c2[n+](cc3c(OCc4ccc(C)c([N+](=O)[O-])c4)c(OC)ccc13)CCc1cc(OC)c(OC)cc1-2 [Compound No. 6, 5,6-dihydro-2,3-dimethoxybenzo[a]-13-ethyl-10-methoxy-9-(4-methyl-3-nitro)benzyloxybenzo[g]quinolizinium chloride] gave an IC50 of under 1 µM.

same assay, conditions: read-out: Enzyme Activity (relative in vitro activity for sterol 14-reductase, IC50 class)

CCc1c2[n+](cc3c(OCc4cc(C)ccc4[N+](=O)[O-])c(OC)ccc13)CCc1cc(OC)c(OC)cc1-2 [Compound No. 25, 5,6-dihydro-2,3-dimethoxybenzo[a]-13-ethyl-10-methoxy-9-(5-methyl-2-nitro)benzyloxybenzo[g]quinolizinium chloride] and CCc1c2[n+](cc3c(OCc4ccc(C)cc4C)c(OC)ccc13)CCc1cc(OC)c(OC)cc1-2 [Compound No. 28, 5,6-dihydro-2,3-dimethoxybenzo[a]-9-(2,4-dimethyl)benzyloxy-13-ethyl-10-methoxybenzo[g]quinolizinium chloride] cannot be ordered by IC50: over 100 µM for the first, over 100 µM for the second.

CCCCCCCCCCCCOc1c(OC)ccc2c(CC)c3[n+](cc12)CCc1cc(OC)c(OC)cc1-3 [Compound No. 1, 5,6-dihydro-2,3-dimethoxybenzo[a]-9-dodecoxy-13-ethyl-10-methoxybenzo[g]quinolizinium chloride] and CCCCCCCCCCCCOc1c(OCC)ccc2c(CC)c3[n+](cc12)CCc1cc(OCC)c(OCC)cc1-3 [Compound No. 61, 5,6-dihydro-2,3-diethoxybenzo[a]-9-dodecoxy-10-ethoxy-13-ethylbenzo[g]quinolizinium chloride] cannot be ordered by IC50: under 1 µM for the first, under 1 µM for the second.

Compared with CCc1c2[n+](cc3c(OCc4cc(OC)c(OC)cc4[N+](=O)[O-])c(OC)ccc13)CCc1cc(OC)c(OC)cc1-2 [Compound No. 5, 5,6-dihydro-2,3-dimethoxybenzo[a]-9-(4,5-dimethoxy-2-nitro)benzyloxy-13-ethyl-10-methoxybenzo[g]-quinolizinium chloride], CCc1c2[n+](cc3c(OCc4ccc([N+](=O)[O-])o4)c(OC)ccc13)CCc1cc(OC)c(OC)cc1-2 [Compound No. 39, 5,6-dihydro-2,3-dimethoxybenzo[a]-13-ethyl-10-methoxy-9-(5-nitrofuran-2-yl)methoxybenzo[g]quinolizinium chloride] is higher in IC50: under 1 µM for the first, 10 to 100 µM for the second. The first is the more potent here.

First: CCc1c2[n+](cc3c(OCc4c(F)c(F)c(C(F)(F)F)c(F)c4F)c(OC)ccc13)CCc1cc(OC)c(OC)cc1-2 [Compound No. 13, 5,6-dihydro-2,3-dimethoxybenzo[a]-13-ethyl-10-methoxy-9-(2,3,5,6-tetrafluoro-4-trifluoromethyl)benzyloxy-benzo[g]quinolizinium chloride]
Second: CCc1c2[n+](cc3c(OCc4c(F)c(F)c(F)c(F)c4F)c(OC)ccc13)CCc1cc(OC)c(OC)cc1-2 [Compound No. 70, 5,6-dihydro-2,3-dimethoxybenzo[a]-13-ethyl-10-methoxy-9-(2,3,4,5,6-pentafluoro)benzyloxybenzo[g]quinolizinium acetate]
The IC50 of the first is lower: under 1 µM for the first, 10 to 100 µM for the second. The first is the more potent here.

First: CCc1c2[n+](cc3c(OCc4ccc(C(C)(C)C)cc4)c(OC)ccc13)CCc1cc(OC)c(OC)cc1-2 [Compound No. 69, 5,6-dihydro-2,3-dimethoxybenzo[a]-9-[4-(tert-butyl)-benzyloxy]-13-ethyl-10-methoxybenzo[g]quinolizinium bisulfate]
Second: CCc1c2[n+](cc3c(OCc4ccc(C)cc4)c(OC)ccc13)CCc1cc(OC)c(OC)cc1-2 [Compound No. 31, 5,6-dihydro-2,3-dimethoxybenzo[a]-13-ethyl-10-methoxy-9-(4-methyl)benzyloxybenzo[g]quinolizinium chloride]
The IC50 of the first is lower: 10 to 100 µM for the first, over 100 µM for the second.

First: CCc1c2[n+](cc3c(OCc4ccccc4I)c(OC)ccc13)CCc1cc(OC)c(OC)cc1-2 [Compound No. 43, 5,6-dihydro-2,3-dimethoxybenzo[a]-13-ethyl-9-(2-iodo)benzyloxy-10-methoxybenzo[g]quinolizinium chloride]
Second: CCc1c2[n+](cc3c(OCc4cccc(C)c4)c(OC)ccc13)CCc1cc(OC)c(OC)cc1-2 [Compound No. 32, 5,6-dihydro-2,3-dimethoxybenzo[a]-13-ethyl-10-methoxy-9-(3-methyl)benzyloxybenzo[g]quinolizinium chloride]
The IC50 of the first is lower: 10 to 100 µM for the first, over 100 µM for the second.

Compared with CCOc1cc2c(cc1OCC)-c1c(CC)c3ccc(OC)c(OCc4c(F)c(F)c(C(F)(F)F)c(F)c4F)c3c[n+]1CC2 [Compound No. 57, 5,6-dihydro-2,3-diethoxybenzo[a]-9-(2,3,5,6-tetrafluoro-4-trifluoromethyl)benzyloxy-13-ethyl-10-methoxy-benzo[g]-quinolizinium chloride], CCc1c2[n+](cc3c(OCc4c(F)c(F)c(F)c(F)c4F)c(OC)ccc13)CCc1cc(O)c(O)cc1-2 [Compound No. 59, 5,6-dihydro-2,3-dihydroxybenzo[a]-13-ethyl-10-methoxy-9-(2,3,4,5,6-pentafluoro)benzyloxybenzo[g]quinolizinium chloride] is higher in IC50: under 1 µM for the first, 10 to 100 µM for the second.

Compared with CCc1c2[n+](cc3c(OCc4ccc(OC)cc4)c(OC)ccc13)CCc1cc(OC)c(OC)cc1-2 [Compound No. 22, 5,6-dihydro-2,3-dimethoxybenzo[a]-13-ethyl-10-methoxy-9-(4-methoxy)benzyloxybenzo[g]quinolizinium chloride], CCc1c2[n+](cc3c(OCc4ccc(Br)cc4)c(OC)ccc13)CCc1cc(OC)c(OC)cc1-2 [Compound No. 19, 5,6-dihydro-2,3-dimethoxybenzo[a]-9-(4-bromo)benzyloxy-13-ethyl-10-methoxybenzo[g]quinolizinium chloride] is lower in IC50: over 100 µM for the first, 10 to 100 µM for the second. The second is the more potent here.

Compared with CCc1c2[n+](cc3c(OCc4ccc(C(C)(C)C)cc4)c(OC)ccc13)CCc1cc3c(cc1-2)OCO3 [Compound No. 46, 5,6-dihydro-2,3-methylenedioxybenzo[a]-9-[(4-tert-butyl)benzyloxy]-13-ethyl-10-methoxybenzo[g]quinolizinium iodide], CCc1c2[n+](cc3c(OCc4ccc(C(F)(F)F)cc4)c(OC)ccc13)CCc1cc3c(cc1-2)OCO3 [Compound No. 50, 5,6-dihydro-2,3-methylenedioxybenzo[a]-13-ethyl-10-methoxy-9-(4-trifluoromethyl)benzyloxybenzo[g]quinolizinium iodide] is higher in IC50: under 1 µM for the first, 10 to 100 µM for the second. The first is the more potent here.

Compared with CCc1c2[n+](cc3c(OCc4cc5c(cc4Cl)OCO5)c(OC)ccc13)CCc1cc(OC)c(OC)cc1-2 [Compound No. 40, 5,6-dihydro-2,3-dimethoxybenzo[a]-9-(6-chloro)-piperonyloxy-13-ethyl-10-methoxybenzo[g]quinolizinium chloride], CCc1c2[n+](cc3c(OCc4ccc(F)cc4Cl)c(OC)ccc13)CCc1cc(OC)c(OC)cc1-2 [Compound No. 10, 5,6-dihydro-2,3-dimethoxybenzo[a]-9-(2-chloro-4-fluro)benzyloxy-13-ethyl-10-methoxybenzo[g]quinolizinium chloride] is lower in IC50: over 100 µM for the first, 10 to 100 µM for the second. The second is the more potent here.

First: CCOc1cc2c(cc1OCC)-c1c(CC)c3ccc(OC)c(OCc4ccc(C(C)(C)C)cc4)c3c[n+]1CC2 [Compound No. 55, 5,6-dihydro-2,3-diethoxybenzo[a]-9-[4-(tert-butyl)benzyloxy]-13-ethyl-10-methoxybenzo[g]quinolizinium chloride]
Second: CCOc1cc2c(cc1OCC)-c1c(CC)c3ccc(OCC)c(OCc4ccc(Cl)nc4)c3c[n+]1CC2 [Compound No. 65, 5,6-dihydro-2,3-diethoxybenzo[a]-9-(6-chloropyridine-3-yl)methoxy-10-ethoxy-13-ethylbenzo[g]-quinolizinium chloride]
The IC50 of the first is lower: under 1 µM for the first, 10 to 100 µM for the second. The first is the more potent here.

Compared with CCc1c2[n+](cc3c(OCc4cccc(C(F)(F)F)c4)c(OC)ccc13)CCc1cc(OC)c(OC)cc1-2 [Compound No. 11, 5,6-dihydro-2,3-dimethoxybenzo[a]-13-ethyl-10-methoxy-9-(3-trifluoromethyl)benzyloxybenzo[g]quinolizinium chloride], CCc1c2[n+](cc3c(OCc4cccc(Cl)c4)c(OC)ccc13)CCc1cc(OC)c(OC)cc1-2 [Compound No. 18, 5,6-dihydro-2,3-dimethoxybenzo[a]-9-(3-chloro)-benzyloxy-13-ethyl-10-methoxybenzo[g]quinolizinium chloride] is higher in IC50: under 1 µM for the first, 10 to 100 µM for the second.

Compared with CCc1c2[n+](cc3c(OCn4nnc5ccccc54)c(OC)ccc13)CCc1cc(OC)c(OC)cc1-2 [Compound No. 29, 5,6-dihydro-2,3-dimethoxybenzo[a]-9-(1H-benzo-triazol-1-yl)methoxy-13-ethyl-10-methoxybenzo[g]-quinolizinium chloride], CCc1c2[n+](cc3c(OCc4ccc(Cl)nc4)c(OC)ccc13)CCc1cc(OC)c(OC)cc1-2 [Compound No. 17, 5,6-dihydro-2,3-dimethoxybenzo[a]-9-(6-chloropyridine-3-yl)methoxy-13-ethyl-10-methoxybenzo[g]quinoli-zinium chloride] is lower in IC50: 10 to 100 µM for the first, under 1 µM for the second. The second is the more potent here.
